Results as given in patent US6716862B2, “5-(Substituted)-5-(substitutedsulfonyl or sulfanyl) thiazolidine-2,4-diones useful for inhibition of farnesyl-protein transferase” (Wyeth Holdings Corporation, priority 2001, dated 2004).

Assays:
[1] = target: FPTase (farnesyl-protein transferase) with H-Ras as substrate for farnesylation (UniProt P29702+P49355); test: in vitro FTase Inhibition Assay (H-Ras substrate); assay type: biochemical
Protocol: Enzyme assay: FPTase inhibition in vitro assay was performed according to James, G. L., Brown, M. S., and Goldstein, J. L., Methods in Enzymology, 1995, 255, 38-46; and Garcia, M. A., et al., J. Biol. Chem., 1993, 268,18415-18420.
Materials—Purified FPTase (Moomaw, J. F. and Casey, P. J., J. Biol. Chem., 1992, 267, 17438-17443), purified His6-Ras, inhibitor compounds at 10 mg/ml or 10 mM in 100% DMSO, ^3H-FPP (50,000 dpm/pmol) Amersham, TCA/SDS (6%/2%), TCA (6%), Glass fiber filters ([…]), vacuum manifold or 96 well filtration plates.
Methods—1. Dilute FPTase inhibitors from stock solutions to 2.5× in 2.5% DMSO, 10 mM DTT, 0.5% octyl-B-glucoside. 2. Solution #1 is added to FPTase reaction in a volume of […]. 3. Standard reaction mix, […], contains 50 mM Tris (7.5),[…], 3 mM MgCl2, 20 mM KCl, 5 mM DTT, 0.2% octyl-B-glucoside, 1% DMSO, […], 10 ng FPTase, and various concentrations of FPTase inhibitors. 4. Incubate for 30-90 min at 25° C. 5. Stop reactions with TCA/SDS (6%/2%), hold at 4° C. for 45-60 min. 6. Filter by manifold or 96 well plate, wash filter 3-5× with TCA (6%). 7. Add scintillant to filters, measure ^3H-FPP incorporation into Ras protein.
Analysis of Results—Percent inhibition by test compounds is determined by the following:
(cpm from precipitated Ras with test compounds)−(background cpm)×100=% inhibition.
(cpm from precipitated Ras without test compounds)−(background cpm)

IC50 [1] [nM] | melting point [°C] | Activity* (% inhib. at 10 μM) [1] | Structure (SMILES)
6500 | 236 to 237 | – | Cc1ccc(S(=O)(=O)C2(Cc3ccc(Br)cc3F)SC(=O)NC2=O)cc1 (stereo not drawn) [Example 2, 5-(4-Bromo-2-fluorobenzyl)-5-(4-methylbenzenesulfonyl)thiazolidine-2,4-dione]
3500 | – | – | Cc1ccc(SC2(Cc3cccc(Oc4cccc(Cl)c4)c3)SC(=O)NC2=O)cc1 (stereo not drawn) [Example 25, 5-[3-(3-Chlorophenoxy)benzyl]-5-(4-methylbenzenesulfanyl)thiazolidine-2,4-dione]
1300 | – | – | COc1ccc(C2(c3cccc(CC4(Sc5ccc(C)cc5)SC(=O)NC4=O)c3)OCCO2)cc1 (stereo not drawn) [Example 8, 5-(3-[2-(4-Methoxyphenyl)[1,3]dioxolan-2-yl]benzyl)-5-(4-methylbenzenesulfanyl)thiazolidine-2,4-dione]
2250 | 202 to 204 | – | Cc1ccc(S(=O)(=O)C2(Cc3ccc(OCCc4nc(-c5ccccc5)oc4C)cc3)SC(=O)NC2=O)cc1 (stereo not drawn) [Example 1, 5-(4-[2-(5-Methyl-2-phenyloxazol-4-yl)ethoxy]benzyl)-5-(4-methylbenzenesulfonyl)thiazolidine-2,4-dione]
2900 | – | – | COc1ccc(Cc2cccc(CC3(Sc4ccc(C)cc4)SC(=O)NC3=O)c2)cc1 (stereo not drawn) [Example 17, 5-[3-(4-Methoxybenzyl)benzyl]-5-(4-methylbenzenesulfanyl)thiazolidine-2,4-dione]
6000 | – | – | Cc1ccc(S(=O)(=O)C2(Cc3cccc(C4(c5cccs5)OCCO4)c3)SC(=O)NC2=O)cc1 (stereo not drawn) [Example 26, 5-[3-(2-thiophen-2-yl[1,3]dioxolan-2-yl)benzyl]-5-(4-methylbenzenesulfonyl)thiazolidine-2,4-dione]
3700 | – | – | COc1ccc(C(O)c2cccc(CC3(Sc4ccc(C)cc4)SC(=O)NC3=O)c2)cc1 (stereo not drawn) [Example 12, 5-(3-[Hydroxy(4-methoxyphenyl)methyl]-benzyl)-5-(4-methylbenzenesulfanyl)thiazolidine-2,4-dione]
– | – | (28%) | Cc1ccc(S(=O)(=O)C2(Cc3ccc(Br)cc3)SC(=O)NC2=O)cc1 (stereo not drawn) [Example 13]
– | 183 to 184 | (1%) | Cc1ccc(S(=O)(=O)C2(Cc3ccc(Cl)c(Cl)c3)SC(=O)NC2=O)cc1 (stereo not drawn) [Example 3, 5-(3,4-Dichlorobenzyl)-5-(4-methylbenzenesulfonyl)thiazolidine-2,4-dione]
– | 195 to 197 | (1%) | O=C1NC(=O)C(Cc2ccc(Br)cc2F)(S(=O)(=O)c2ccc3ccccc3c2)S1 (stereo not drawn) [Example 4, 5-(4-Bromo-2-fluorobenzyl)-5-(naphthalene-2-sulfonyl)thiazolidine-2,4-dione]
4250 | – | – | COc1ccc(C(=O)c2cccc(CC3(S(=O)(=O)c4ccc(C)cc4)SC(=O)NC3=O)c2)cc1 (stereo not drawn) [Example 10, 5-(3-(4-methoxybenzoyl)benzyl)-5-(4-methylbenzenesulfonyl)thiazolidine-2,4-dione]
740 | 104 to 107 | – | COc1ccc(S(=O)(=O)C2(Cc3ccc(-c4ccc(Cl)cc4Cl)cc3)SC(=O)NC2=O)cc1 (stereo not drawn) [Example 24, 5-(2′,4′-Dichlorobiphen-4-ylmethyl)-5-(4-methoxybenzenesulfonyl)thiazolidine-2,4-dione]
2500 | – | – | COc1ccc(C(=O)c2cccc(CC3(Sc4ccc(C)cc4)SC(=O)NC3=O)c2)cc1 (stereo not drawn) [Example 11, 5-(3-(4-methoxybenzoyl)benzyl)-5-(4-methylbenzenesulfanyl)thiazolidine-2,4-dione]
2500 | – | – | COc1ccc(S(=O)(=O)C2(Cc3ccc(-c4cccc(C(F)(F)F)c4)cc3)SC(=O)NC2=O)cc1 (stereo not drawn) [Example 22, 5-(4-Methoxybenzenesulfonyl)-5-(3′-(trifluoromethyl)biphen-4-ylmethyl)thiazolidine-2,4-dione]
77 | – | – | Cc1ccc(S(=O)(=O)C2(Cc3ccc(-c4ccccc4C#N)cc3)SC(=O)NC2=O)cc1 (stereo not drawn) [Example 14, 5-[2′-cyanobiphen-4-ylmethyl]-5-(4-methylbenzenesulfonyl)thiazolidine-2,4-dione]
> 10000 | 122 to 125 | – | COc1ccc(S(=O)(=O)C2(Cc3ccc(-c4cc(C(F)(F)F)cc(C(F)(F)F)c4)cc3)SC(=O)NC2=O)cc1 (stereo not drawn) [Example 23, 5-(3′,5′-Bis(trifluoromethyl)biphen-4-ylmethyl)-5-(4-methoxybenzenesulfonyl)thiazolidine-2,4-dione]
1200 | – | – | COc1ccc(C2(c3cccc(CC4(S(=O)(=O)c5ccc(C)cc5)SC(=O)NC4=O)c3)OCCO2)cc1 (stereo not drawn) [Example 9, 5-(3-[2-(4-Methoxyphenyl)[1,3]dioxolan-2-yl]benzyl)-5-(4-methylbenzenesulfonyl)thiazolidine-2,4-dione]
350 | – | – | COc1ccc(S(=O)(=O)C2(Cc3ccc(-c4ccccc4C#N)cc3)SC(=O)NC2=O)cc1 (stereo not drawn) [Example 16, 5-[2′-cyanobiphen-4-ylmethyl]-5-(4-methoxybenzenesulfonyl)thiazolidine-2,4-dione]
4500 | – | – | Cc1ccc(SC2(Cc3cccc(C4(c5cccs5)OCCO4)c3)SC(=O)NC2=O)cc1 (stereo not drawn) [Example 18, 5-[3-(2-Thiophen-2-yl[1,3]dioxolan-2-yl)benzyl]-5-(4-methylbenzenesulfanyl)thiazolidine-2,4-dione]
– | 146 to 152 | (21%) | COc1ccc(S(=O)(=O)C2(Cc3ccccc3)SC(=O)NC2=O)cc1 (stereo not drawn) [Example 6, 5-Benzyl-5-(4-methoxybenzenesulfonyl)thiazolidine-2,4-dione]
1700 | 119 to 122 | – | COc1ccc(S(=O)(=O)C2(Cc3ccc(-c4ccccc4)cc3)SC(=O)NC2=O)cc1 (stereo not drawn) [Example 20, 5-Biphen-4-ylmethyl-5-(4-methoxybenzenesulfonyl)thiazolidine-2,4-dione]
– | 133 to 136 | (−2%) | Cc1oc(-c2ccccc2)nc1CCOc1ccc(CC2(S(=O)(=O)c3ccc4ccccc4c3)SC(=O)NC2=O)cc1 (stereo not drawn) [Example 5, 5-(4-[2-(5-Methyl-2-phenyloxazol-4-yl)ethoxy]benzyl)-5-(naphthalene-2-sulfonyl)thiazolidine-2,4-dione]
2800 | – | – | Cc1ccc(SC2(Cc3cccc(C(=O)c4cccs4)c3)SC(=O)NC2=O)cc1 (stereo not drawn) [Example 19, 5-[3-(Thiophene-2-carbonyl)benzyl]-5-(4-methylbenzenesulfanyl)thiazolidine-2,4-dione]
2500 | – | – | COc1ccc(S(=O)(=O)C2(Cc3ccccc3)SC(=O)N(CC(=O)NO)C2=O)cc1 (stereo not drawn) [Example 7, 2-[5-Benzyl-5-(4-methoxybenzenesulfonyl)-2,4-dioxothiazolidin-3-yl]-N-hydroxyacetamide]
– | – | (4%) | Cc1ccc(S(=O)(=O)C2(Cc3ccc(-c4ccccc4-c4nnn[nH]4)cc3)SC(=O)NC2=O)cc1 (stereo not drawn) [Example 15, 5-[2′-(1H-Tetrazol-5-yl)biphen-4-ylmethyl]-5-(4-methylbenzenesulfonyl)thiazolidine-2,4-dione]
1000 | 197 to 200 | – | COc1ccc(S(=O)(=O)C2(Cc3ccc(-c4ccc(Cl)cc4)cc3)SC(=O)NC2=O)cc1 (stereo not drawn) [Example 21, 5-(4′-Chlorobiphen-4-ylmethyl)-5-(4-methoxybenzenesulfonyl)thiazolidine-2,4-dione]
